Assay results taken from US11898114B2, “Reactions and methods for producing fuels” (Alliance for Sustainable Energy, LLC, priority 2020, dated 2024).
Read-outs that look alike come from different tables or passages of the source. Marks after values point to notes of the source that are not given here.

How the values were obtained:
[1] = literature values (Fioroni, et al.; Lautenschütz, et al.; reported); cited from earlier work
[2] = Water solubility (extraction into water, TOC and GC-MS-FID); format: physicochemical; conditions: component of B*POME1-6 extracted into water, 1:5 water:B*POME1-6
Experimental: The aqueous layer was then analyzed by total organic carbon (TOC) to determine the amount of the fuel product that was extracted into water. […] The concentration of each component was approximated from the FID response to estimate both the total amount of fuel product and relative solubility of individual components. […] Aqueous phases were diluted 1:2 with methanol. An Agilent 8890 GC/FID—5977B MS system was used for analysis. A volume of 1.0 μL was injected into a split/splitless inlet set to 275° C. and a split ratio of 1:100. Compounds were separated using an Rtx-50 column (50% phenyl polydimethylsiloxane, Restek) of dimensions 30 m×0.25 mm×0.25 μm with a helium carrier gas at a flow rate of 1.0 mL/min. A post column splitter was used to divert column effluent simultaneously to FID and MS detectors for qualitative and quantitative analysis. The GC oven temperature was held at 40° C. for 2 minutes, then ramped to 140° C. at 7° C./min, followed by a ramp to 290° C. at 12° C./min and held for 10 minutes. The MS transfer line and FID temperatures were set to 350° C. The MS detector was operated in continuous scan mode from m/z 29 to 300. The FID response was calibrated using a standard of 2,5-dimethylfuran prepared gravimetrically in acetone.

[3] = literature values (Fioroni, et al.; Lautenschütz, et al.); cited from earlier work
[4] = literature values (Fioroni, et al.; Lautenschütz, et al.); cited from earlier work; remark: listed apart in the source
[5] = Boiling point range (TGA-based simulated distillation); format: physicochemical; conditions: neat
Experimental: (§1) Boiling point range of the target product was determined by a thermogravimetric analysis (TGA) based simulated distillation. Distillation temperatures were not determined via the standard method for diesel fuel, ASTM D86, due to the limited volume of sample available and gas chromatography based simulated distillation was not utilized given the relatively polar nature of POMEs. Analysis was conducted using a CAHN TG-131 TGA under flowing nitrogen with a ramp rate of 50° C./min from 25 to 550° C. The sample size was ca. 250 mg. The distillation parameters were selected to generate curves that closely matched ASTM D86 distillation values. The results of this method were validated using a standard fuel oil designed for validating ASTM D86 (Accustandard). Cloud point was measured using a Phase Technology Series 70X according to ASTM D5773; the method uncertainty is typically ±2.5° C. Flash point was measured according to ASTM D7094-17a with a method reproducibility stated as ±5.5° C. Indicated cetane number (ICN) was measured using an Advanced Fuel Ignition Delay Analyzer (AFIDA) instrument according to ASTM D8183-18 and where reproducibility is calculated as ±0.006407(ICN)^1.47. Higher heating value (HHV) and lower heating value (LHV) were determined according to ASTM D240-19 with a method reproducibility of ±0.4 MJ/kg.

[6] = Flash point (ASTM D7094-17a neat; D6450-16a blends); format: physicochemical; conditions: measured
Experimental: as §1, with “The results of this method were validated using a standard fuel oil designed for validating ASTM D86 (Accustandard).” left out
(§2) Higher heating value (HHV) and lower heating value (LHV) were determined according to ASTM D240-19 with a method reproducibility of ±0.4 MJ/kg. […] Lubricity was measured using ASTM D6079-18. […]

[7] = Lower heating value (ASTM D240-19); format: physicochemical; conditions: neat, measured
Experimental: as §1, with “The results of this method were validated using a standard fuel oil designed for validating ASTM D86 (Accustandard).” left out
as §2

CCOCOCC [EE-POME1]
LHV [1]: 29^# MJ/kg

CCCCOCOCOCOCOC [MB-POME4]
Aqueous layer concentration of component [2]: 0.4 g/L

CCOCOCOCOCOCC [EE-POME4]
LHV [1]: 23^# MJ/kg

COCOCOCOCOCOC [MM-POME5]
LHV [1]: 19^# MJ/kg
Boiling point [3]: 242^# °C
Flash point [4]: 115^# °C
Aqueous layer concentration of component [2]: 1.1 g/L

CCCCOCOCOCCCC [BB-POME2]
Aqueous layer concentration of component [2]: 0.1 g/L

CCCCOCOCOCOCOCOC [MB-POME5]
Aqueous layer concentration of component [2]: 0.1 g/L

CCO [ethanol]
LHV [1]: 26.8 mJ/kg

COCOCOCOC [MM-POME3]
Boiling point [3]: 156^# °C
Flash point [4]: 54^# °C

COCOCOCOCOC [MM-POME4]
Boiling point [3]: 202^# °C
Flash point [4]: 88^# °C
Aqueous layer concentration of component [2]: 1.5 g/L

COCOCOC [MM-POME2]
Aqueous layer concentration of component [2]: 0.6 g/L

COCOCOCOCOCOCOC [MM-POME6]
Aqueous layer concentration of component [2]: 0.5 g/L

CCCCOCOCCCC [BB-POME1, dibutoxymethane]
Boiling point / boiling range [5]: 179 °C
Boiling point [3]: 187^$ °C
Flash point [6]: 62 °C
Flash point [4]: 62^$ °C
Aqueous layer concentration of component [2]: 0.2 g/L

COCOC [MM-POME1, methylal]
LHV [1]: 23^# MJ/kg

CCCCOCOCOC [MB-POME2]
Aqueous layer concentration of component [2]: 2.4 g/L

CCOCOCOCOCC [EE-POME3]
Boiling point / boiling range [5]: 185 °C
LHV [1]: 24^# MJ/kg
Flash point [6]: 68 °C
LHV [7]: 24 mJ/kg

CCOCOCOCC [EE-POME2]
LHV [1]: 26^# MJ/kg

CCCCOCOCOCOC [MB-POME3]
Aqueous layer concentration of component [2]: 1.1 g/L
